Assay results published in paper PMC10728220, “Novel 3-(pyrazol-4-yl)-2-(1H-indole-3-carbonyl)acrylonitrile derivatives induce intrinsic and extrinsic apoptotic death mediated P53 in HCT116 colon carcinoma” (Scientific Reports, 2023).
In brackets after ≈: the same amount, converted by molar mass.

Experiments:
[1] = tested on: lung carcinoma (A549); assay: Cytotoxic MTT assay, A549; format: cell-based; conditions: Homo sapiens, 48 h treatment
Protocol: (§1) MTT protocol was performed to study the viability of cells after treatment with the tested compounds. The studied cell lines (A549 and HCT116) were cultured and grown in RPMI‐1640 media, while HFB4 cells were reserved in DMEM‐F12 media. Both media were supplemented with 10% FBS, 1% L‐glutamine, and 1% antibiotic–antimycotic mixture. The cell lines were grown at conditions of 37 °C and 5% CO2. 10 × 10^3 of A549, and HCT116 cells and the same count of normal melanocytes (HFB4) were cultured in a 96‐well plate. The selected cultured cells were kept at 37°C and 5% CO2 overnight. Then, the medium was discarded after 24 h of incubation, and 100 µL from different concentrations of the studied compounds dissolved in fresh medium without serum, with final concentrations of 100, 50, 25, 12.5, 6.25, 3.125, 1.56, and 0.78 µg/mL was added. The treated cells were then incubated for 48 h. After that, 50 µL of MTT was added into each well for 4 h for the formazan crystals to be formed. Finally, 200 µl of 10% sodium dodecyl sulphate (SDS) was added to each well, and plates were kept at room temperature overnight to allow the reaction to be stopped. The optical density at 575 nm was read using a microplate multi-well reader, and the percentage of cell viability was calculated. The dose–response curve was drawn to calculate the IC50 values for each compound using the prism GraphPad 5 program, [84]. 5 Fluorouracil, a commercial anticancer drug was used as a reference drug (positive control). Negative untreated cell control was used in this assay.

[2] = tested on: colorectal carcinoma (HCT116); assay: Cytotoxic MTT assay, HCT116; format: cell-based, human; conditions: Homo sapiens, HCT-116; MTT, 48 h treatment
Protocol: as §1

[3] = tested on: normal human skin melanocyte cell line (HFB4); assay: Cytotoxic MTT assay, normal HFB4 cells; format: cell-based; conditions: 48 h treatment
Protocol: as §1

[4] = tested on: MCF-7; parameters: method as in Jumaah et al., 65; conditions: ref Jumaah et al., 65; cited from earlier work
[5] = tested on: A549; parameters: method as in doi:10.1007/s00706-021-02886-5; conditions: cited from earlier work
[6] = tested on: HepG2; parameters: method as in doi:10.1007/s00706-021-02886-5; conditions: cited from earlier work
[7] = tested on: HepG2; parameters: method as in PMID 34939695; conditions: previous study of the authors; cited from earlier work
[8] = tested on: A549; parameters: method as in PMID 34939695; conditions: previous study of the authors; cited from earlier work

Row | Compound | melting point [°C] | IC50 [1] [µg/mL] | IC50 [2] [µg/mL] | IC50 [3] [µg/mL] | further results
1 | COc1ccc2c(/C=C/C(=O)c3cc(OC)c(OC)c(OC)c3)cn(C)c2c1 [(E)-3-(6-methoxy-1-methyl-1H-indol-3-yl)-1-(3,4,5-tri-methoxyphenyl)-prop-2-en-1-one] | – | – | – | – | IC50 [4]: 19.2 µM
2 | O=c1[nH]cc(F)c(=O)[nH]1 [5 FU, 5-Fluorouracil, reference compound] | – | 371 (≈ 2850 µM) | 77.2 (≈ 593 µM) | 223 (≈ 1710 µM) | –
3 | Cc1ccc(C=CC(=O)c2c(C)nn(-c3ccc([N+](=O)[O-])cc3)c2C)cc1 [1-[3,5-dimethyl-1-(4-nitrophenyl)-1H-pyrazol-4-yl]-3-(p-tolyl) prop-2-en-1-one] | – | – | – | – | IC50 A549 [5]: 44.3 µg/mL (≈ 123 µM); IC50 HepG2 [6]: 57.9 µg/mL (≈ 160 µM)
4 | 3-(thiophen-2-yl)pyrazol-4-yl)chalcone | – | – | – | – | IC50 [7]: 64 µM; IC50 [8]: 66.6 µM

The next lines start with results.

Row | melting point [°C] | Compound | IC50 [1] [µg/mL] | IC50 [2] [µg/mL] | IC50 [3] [µg/mL] | further results
5 | 288 to 290 | Cc1ccc(-c2nn(-c3ccccc3)cc2/C=C(\C#N)C(=O)c2c[nH]c3ccccc23)cc1 [Compound 7b, (E)-2-(1H-Indole-3-carbonyl)-3-(1-phenyl-3-(p-tolyl)-1H-pyrazol-4-yl)acrylonitrile] | > 100 | > 100 | > 100 | –
6 | 296 to 298 | N#C/C(=C\c1cn(-c2ccccc2)nc1-c1ccc(Cl)cc1)C(=O)c1c[nH]c2ccccc12 [Compound 7e, (E)-3-(3-(4-Chlorophenyl)-1-phenyl-1H-pyrazol-4-yl)-2-(1H-indole-3-carbonyl)acrylonitrile] | > 100 | > 100 | > 100 | –
7 | 288 to 290 | N#C/C(=C\c1cn(-c2ccccc2)nc1-c1ccc(O)cc1)C(=O)c1c[nH]c2ccccc12 [Compound 7d, (E)-3-(3-(4-Hydroxyphenyl)-1-phenyl-1H-pyrazol-4-yl)-2-(1H-indole-3-carbonyl)acrylonitrile] | > 100 | 43 (≈ 99.9 µM) | > 100 | –
8 | 252 to 254 | COc1ccc(-c2nn(-c3ccccc3)cc2/C=C(\C#N)C(=O)c2c[nH]c3ccccc23)cc1 [Compound 7c, (E)-2-(1H-Indole-3-carbonyl)-3-(3-(4-methoxyphenyl)-1-phenyl-1H-pyrazol-4-yl)acrylonitrile] | > 100 | > 100 | > 100 | –
9 | 250 to 252 | N#C/C(=C\c1cn(-c2ccccc2)nc1-c1ccccc1)C(=O)c1c[nH]c2ccccc12 [Compound 7a, (E)-3-(1,3-Diphenyl-1H-pyrazol-4-yl)-2-(1H-indole-3-carbonyl)acrylonitrile] | > 100 | 93.1 (≈ 225 µM) | > 100 | –
